Source: ChEMBL document CHEMBL4014322, “Atropisomerism and Conformational Equilibria: Impact on PI3Kδ Inhibition of 2-((6-Amino-9H-purin-9-yl)methyl)-5-methyl-3-(o-tolyl)quinazolin-4(3H)-one (IC87114) and Its Conformationally Restricted Analogs” (J Med Chem, 2017)

Key:
[1] = target: PI3-kinase p110-delta/p85-alpha (Homo sapiens, UniProt O00329); assay: Inhibition of human recombinant full length N-terminal His6-tagged PI3K p110delta/p85alpha expressed in baculovirus infected Sf9 insect cells using PI:PS as substrate after 60 mins by ADP-Glo assay
[2] = target: T1, Phosphatidylinositol 4,5-bisphosphate 3-kinase catalytic subunit delta isoform (Homo sapiens, UniProt O00329)
T1 sequence (O00329 whole entry): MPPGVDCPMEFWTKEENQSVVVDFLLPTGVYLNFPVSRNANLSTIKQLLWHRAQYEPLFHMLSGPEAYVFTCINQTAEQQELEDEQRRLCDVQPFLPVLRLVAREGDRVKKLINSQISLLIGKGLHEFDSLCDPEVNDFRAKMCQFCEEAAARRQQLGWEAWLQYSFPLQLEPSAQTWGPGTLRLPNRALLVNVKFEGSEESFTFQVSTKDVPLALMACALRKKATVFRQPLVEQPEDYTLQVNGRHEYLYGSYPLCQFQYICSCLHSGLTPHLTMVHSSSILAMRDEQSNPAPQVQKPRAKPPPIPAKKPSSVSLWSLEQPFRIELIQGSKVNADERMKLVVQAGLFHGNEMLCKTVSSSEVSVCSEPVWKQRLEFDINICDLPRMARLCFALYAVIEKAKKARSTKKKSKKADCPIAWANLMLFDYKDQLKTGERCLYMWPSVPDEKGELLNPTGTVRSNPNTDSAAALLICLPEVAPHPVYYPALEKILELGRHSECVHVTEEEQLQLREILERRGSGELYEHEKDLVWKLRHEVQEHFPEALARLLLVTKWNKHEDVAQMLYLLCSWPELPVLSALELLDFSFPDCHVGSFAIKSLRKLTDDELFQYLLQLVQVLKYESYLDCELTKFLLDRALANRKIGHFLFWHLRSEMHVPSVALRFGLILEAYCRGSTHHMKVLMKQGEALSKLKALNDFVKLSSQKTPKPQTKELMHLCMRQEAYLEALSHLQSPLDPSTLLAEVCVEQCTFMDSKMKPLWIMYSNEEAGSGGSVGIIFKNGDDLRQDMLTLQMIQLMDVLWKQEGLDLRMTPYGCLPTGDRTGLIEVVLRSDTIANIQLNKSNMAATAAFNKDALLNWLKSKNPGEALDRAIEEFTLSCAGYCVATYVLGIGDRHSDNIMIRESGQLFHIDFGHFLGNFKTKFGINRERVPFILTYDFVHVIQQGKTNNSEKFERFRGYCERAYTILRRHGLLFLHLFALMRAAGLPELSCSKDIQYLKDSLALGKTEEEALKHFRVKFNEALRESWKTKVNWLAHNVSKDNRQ
Description: Inhibition of PI3Kdelta in human PBMC assessed as reduction in anti-human CD28 antibody stimulated IL-6 secretion levels after 72 hrs by ELISA

Chain of PI3-kinase p110-delta/p85-alpha (P27986 whole entry, one chain of several, canonical isoform): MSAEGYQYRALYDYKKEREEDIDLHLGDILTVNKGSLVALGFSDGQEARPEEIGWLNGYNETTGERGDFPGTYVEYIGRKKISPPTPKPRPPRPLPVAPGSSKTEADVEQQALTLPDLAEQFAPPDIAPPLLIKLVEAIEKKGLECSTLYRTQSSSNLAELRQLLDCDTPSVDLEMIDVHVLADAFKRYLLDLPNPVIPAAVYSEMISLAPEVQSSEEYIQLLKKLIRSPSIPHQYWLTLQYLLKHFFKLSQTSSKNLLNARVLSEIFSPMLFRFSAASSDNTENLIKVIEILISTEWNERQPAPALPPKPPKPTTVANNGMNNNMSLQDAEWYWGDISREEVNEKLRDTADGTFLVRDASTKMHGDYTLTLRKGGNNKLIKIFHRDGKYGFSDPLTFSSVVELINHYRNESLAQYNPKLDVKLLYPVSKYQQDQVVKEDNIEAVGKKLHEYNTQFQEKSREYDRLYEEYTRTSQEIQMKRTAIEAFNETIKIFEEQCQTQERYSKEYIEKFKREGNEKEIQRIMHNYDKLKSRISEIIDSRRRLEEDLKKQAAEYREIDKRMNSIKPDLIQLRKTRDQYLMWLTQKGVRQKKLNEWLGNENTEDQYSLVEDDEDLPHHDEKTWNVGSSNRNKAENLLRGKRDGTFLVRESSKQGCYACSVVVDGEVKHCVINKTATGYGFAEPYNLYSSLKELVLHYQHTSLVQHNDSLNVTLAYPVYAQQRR

Structure (SMILES)	Ki [1] [nM]	IC50 [2] [nM]
Cc1cccc2nc(Cn3cnc4c(N)ncnc43)n(-c3ccccc3)c(=O)c12	25.1	50.1
Cc1ccccc1-n1c([C@H](C)n2cnc3c(N)ncnc32)nc2cccc(C)c2c1=O (stereo in doubt; form 1)	3.16	6.31
Cc1ccccc1-n1c([C@@H](C)n2cnc3c(N)ncnc32)nc2cccc(C)c2c1=O (stereo in doubt; form 1)	126	
Cc1ccccc1-n1c([C@H](C)n2cnc3c(N)ncnc32)nc2cccc(C)c2c1=O (stereo in doubt; form 2)	1.58	1.26
Cc1ccccc1-n1c([C@@H](C)n2cnc3c(N)ncnc32)nc2cccc(C)c2c1=O (stereo in doubt; form 2)	12.6	
